Experiments:
[1] = target: SARS-CoV-2 S protein (Severe acute respiratory syndrome coronavirus 2, UniProt P0DTC2); assay: cell-based; conditions: HEK-293T, read-out: IC90, inhibition of S-mediated fusion
[2] = system: SARS-CoV-2; conditions: 72 h
[3] = system: Vero E6 cells

CC[C@H](C)[C@H](NC(=O)[C@H](C)NC(=O)[C@H](CCC(=O)O)NC(=O)[C@H](CCC(=O)O)NC(=O)[C@H](CC(C)C)NC(=O)[C@H](CCCCN)NC(=O)[C@H](CCCCN)NC(=O)[C@H](CCSC)NC(=O)[C@H](CCC(=O)O)NC(=O)[C@H](Cc1ccc(O)cc1)NC(=O)[C@H](CCC(=O)O)NC(=O)[C@H](CC(C)C)NC(=O)[C@H](CC(=O)O)NC(=O)[C@H](CC(C)C)NC(=O)[C@H](Cc1ccccc1)NC(=O)[C@@H](NC(=O)[C@@H](NC(=O)[C@H](CC(N)=O)NC(=O)[C@@H](NC(=O)[C@H](CCC(N)=O)NC(=O)[C@H](CC(=O)O)NC(=O)[C@H](CC(C)C)NC(=O)[C@H](CO)NC(C)=O)[C@@H](C)CC)C(C)C)[C@@H](C)O)C(=O)N[C@@H](CCCCN)C(=O)N[C@@H](CCCCN)C(=O)N[C@@H](CC(C)C)C(=O)N[C@@H](CCC(=O)O)C(=O)N[C@@H](CCC(=O)O)C(=O)N[C@@H](CO)C(=O)N[C@@H](Cc1ccc(O)cc1)C(=O)N[C@H](C(=O)N[C@@H](CC(=O)O)C(=O)N[C@@H](CC(C)C)C(=O)N[C@@H](CCCCN)C(=O)N[C@@H](CCC(=O)O)C(=O)N[C@@H](CC(C)C)C(=O)NCC(=O)N[C@@H](CO)C(=O)NCC(=O)N[C@@H](CO)C(=O)NCC(=O)N[C@@H](CSCC(=O)NCCOCCOCCOCCOCCC(=O)O[C@H]1CC[C@@]2(C)C(=CC[C@H]3[C@@H]4CC[C@H]([C@H](C)CCCC(C)C)[C@@]4(C)CC[C@@H]32)C1)C(N)=O)[C@@H](C)CC [EK1 lipopeptide]
IC90 [1]: > 900 nM
IC50 [2]: ~80 nM
toxicity (MTT assay) [3]: < 20%
